For experiment [1], the target named is T1, human-mouse chimeric GPR119 (Homo sapiens, UniProt Q8TDV5, A235T/C313R/C323Y/E253K/F304I/F307L/G211A/G245S/H255C/K284R/L224V/L258Q/L288Q/L301F/P218V/P318T/Q252H/R262K/S214P/S219N/S228A/S309P/S322A/T217S/T239S/V227I/V300F).
T1 construct: the first 198 amino acids of human GPR119; the C-terminal 137 amino acids of the mouse receptor; expressed in transfected cells
T1 sequence (Q8TDV5 with tags, fused parts or gaps G211A/S214P/T217S/P218V/S219N/L224V/V227I/S228A/A235T/T239S/G245S/Q252H/E253K/H255C/L258Q/R262K/K284R/L288Q/V300F/L301F/F304I/F307L/S309P/C313R/P318T/S322A/C323Y): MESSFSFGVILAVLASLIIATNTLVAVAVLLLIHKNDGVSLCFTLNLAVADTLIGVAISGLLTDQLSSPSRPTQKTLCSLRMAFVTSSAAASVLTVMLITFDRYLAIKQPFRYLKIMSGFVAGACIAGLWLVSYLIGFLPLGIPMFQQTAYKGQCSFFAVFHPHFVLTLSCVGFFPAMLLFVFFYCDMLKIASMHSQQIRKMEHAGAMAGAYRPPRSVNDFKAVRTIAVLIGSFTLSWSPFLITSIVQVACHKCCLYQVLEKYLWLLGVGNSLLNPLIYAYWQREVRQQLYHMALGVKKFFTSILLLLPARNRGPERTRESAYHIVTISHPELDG
Briefly: Tet-inducible cAMP assay. It is filed as cell-based. The conditions noted are these: cAMP accumulation (HTRF), Flp-In-T-Rex-HEK293 cells expressing chimeric human/mouse GPR119, 50 min incubation; read-out: GPR119 EC50. How it is done: The in vitro modulation of recombinant human GPR119 was determined as follows.
A human-mouse chimeric GPR119 expression construct encoding 3 copies of the FLAG epitope tag, the first 198 amino acids of human GPR119 and the C-terminal 137 amino acids of the mouse receptor was cloned into a tetracycline inducible vector pcDNA5/FRT/TO (Invitrogen #V6520-20), which includes a hygromycin-resistance marker. Tightly controlled receptor expression was achieved by stable integration of this construct into the genome of a specific host cell line, Flp-In-T-Rex-HEK293, expressing the tetracycline repressor (Invitrogen). Once a stable hygromycin-resistant cell line was generated, the cells were maintained at 37° C. in a humidified 5% CO2 atmosphere in culture medium consisting of Dulbecco's modified Eagle's medium (DMEM; Invitrogen #11960) supplemented with 2 mM L-glutamine, 10% fetal bovine serum, 200 μg/ml hygromycin B, and 15 μg/ml blasticidin.
Forty-eight hours prior to the cAMP accumulation assay, cells stably expressing the chimeric human/mouse GPR119 construct were seeded at a density of 4×10^3 cells/well in 384 well poly-D-lysine coated solid white plates (BD #35-6661) and grown at 37° C. in a humidified 5% CO2 atmosphere in culture medium supplemented with 1 μg/ml tetracycline to induce expression of the receptor. On the day of the assay, medium was removed and cells were incubated for 50 min. at 37° C. in a humidified 5% CO2 atmosphere in 20 μl/well of assay buffer (phosphate-buffered saline with Ca^2+ and Mg^2+, 12 mM glucose, 0.1 mM isobutyl-methyl-xanthine, 0.1% fatty-acid free bovine serum albumin) with the desired concentration of compound added from a concentrated stock dissolved in dimethyl sulfoxide (DMSO) to give a final concentration of 1% DMSO in the assay. cAMP accumulation was measured using the CisBio homogeneous time resolved fluorescence (HTRF) assay kit (#62AM2PEC) following the manufacturer's protocol. Briefly, 10 μl each of the cAMP-HTRF fluorescence detection reagents were added to each well, and the samples were incubated for 40 min. at room temperature. Fluorescence was excited at 320 nm and measured at 665 and 620 nm using the Envision instrument (Perkin Elmer), the fluorescence ratio of 665/620 was calculated and converted to nanomolar concentrations of cAMP in each well by interpolation from a cAMP standard curve. The concentration-response curves and EC50 values were calculated with a four parameter logistic curve fit equation utilizing Excel/XLfit software (Microsoft and IDBS). The EC50 value was calculated as the concentration of agonist which increased the cAMP concentration to a value halfway between the baseline and the maximum.
Compounds of the present invention were tested in the Tet-inducible cAMP assay described immediately above and the results shown in Table 2 below were obtained.
A general note: cAMP levels reflect the balance of adenylyl cyclase and phosphodiesterase activity.

Experiment [2] relates to plasma glucose in male C57BL/6J mice. Briefly: Mouse oral glucose tolerance test. The experiment is classed as in vivo. The protocol: Twenty four (24) male C57BL/6J mice (8-10 weeks old, average weight 28 g) were randomized into 4 groups (1 mouse/cage) of 6 mice per group based on fed plasma glucose and body weight. Prior to initiating the study, mice were fasted overnight and the next morning they were weighed and placed in the experimental lab. After 30 min in the environment, the mice were bled via tail tip at −60 min and immediately given their first oral administration of vehicle (40% PEG400, 10% Cremophor EL, 50% water) or compound solutions (5 ml/kg). At time 0 the mice were bled and given 50% glucose (2 g/kg) to initiate the oral glucose tolerance test (oGTT). The mice were bled 30, 60 and 120 min after the glucose load. Blood samples were drawn into potassium EDTA, placed on ice during the study and subsequently centrifuged for 10 min at 3000 rpm at 4° C. Plasma samples were diluted 11-fold for glucose analysis in the COBAS MIRA® System (Roche Diagnostics). Area under the curve was calculated from the plasma glucose time course data using the trapezoid rule with fasting plasma glucose as the baseline (GraphPad Prism Software). The statistical significance of the changes in the glucose AUCs resulting from the different treatments was determined by one-way ANOVA followed by Dunnett's test using the vehicle group as the control (JMP software, release 5.1.2). […]

Broadly, the EC50 is the concentration giving half of the maximal effect.

For the compound `CCCc1cnc(N2CCC(Oc3nc4ccc(C5=CCN(S(=O)(=O)C[C@@H](C)CO)CC5)cc4s3)CC2)nc1` (single isomer, unassigned) [Example 19], the EC50 in experiment [1] was found to be 2.3 nM.

For `Cc1nnc(N2CCC(Oc3nc4ccc(-c5ccc(S(C)(=O)=O)cc5)cc4s3)CC2)s1` [Example 294], the EC50 in experiment [1] turned out to be 20.4 nM. On the same count and under the same terms, to `CCCCOC(=O)N1CC=C(c2ccc3nc(OC4CCN(c5ncc(CCC)cn5)CC4)sc3c2)CC1` [Example 81] belongs 142 nM; to `CCCc1cnc(N2CCC(Oc3nc4ccc(C5=CCN(S(=O)(=O)CCCO)CC5)cc4s3)CC2)nc1` [Example 3, 3-(4-(2-(1-(5-Propylpyrimidin-2-yl)piperidin-4-yloxy)benzo[d]thiazol-6-yl)-5,6-dihydropyridin-1(2H)-ylsulfonyl)propan-1-ol], 11.1 nM; to `CCCc1cnc(N2CCC(Oc3nc4ccc(N5CCC(C(=O)N6CCCC6)CC5)cc4s3)CC2)nc1` [Example 45, (1-(2-(1-(5-Propylpyrimidin-2-yl)piperidin-4-yloxy)benzo[d]thiazol-6-yl)piperidin-4-yl)(pyrrolidin-1-yl)methanone], 463 nM. The same measure, in the same setting: to `CCCS(=O)(=O)N1CC=C(c2ccc3nc(OC4CCN(C(C)=O)CC4)sc3c2)CC1` [Example 92] belongs 839 nM. Same read-out and setting: to `CCCc1cnc(N2CCC(Oc3nc4ccc(C5=CCN(S(=O)(=O)CCN6CCCC6)CC5)cc4s3)CC2)nc1` [Example 134] belongs 55.6 nM; to `CCCc1cnc(N2CCC(Oc3nc4ccc(C5=CCN(c6nc(C)cs6)CC5)cc4s3)CC2)nc1` [Example 60], 767 nM; to `CCCS(=O)(=O)N1CC=C(c2ccc3nc(OC4CCN(S(=O)(=O)C5CC5)CC4)sc3c2)CC1` [Example 22, 2-(1-(Cyclopropylsulfonyl)piperidin-4-yloxy)-6-(1-(propylsulfonyl)-1,2,3,6-tetrahydropyridin-4-yl)benzo[d]thiazole], 29.1 nM. Take `CCCc1cnc(N2CC[C@@H](Oc3nc4ccc(C5=CCN(S(C)(=O)=O)CC5)cc4s3)C2)nc1` [Example 84]: the half-maximal effective concentration (EC50) in experiment [1] is 953 nM. Same read-out and setting: to `CCCc1cnc(N2CCC(Cc3nc4ccc(N5CCN(S(=O)(=O)CCC(=O)OC)CC5)cc4o3)CC2)nc1` [Example 144] belongs 675 nM; to `O=S(=O)(CCCO)N1CCN(c2ccc3nc(OC4CCN(c5ncc(F)cn5)CC4)sc3c2)CC1` [Example 221], 13.9 nM; to `CCCNC(=O)N1CC=C(c2ccc3nc(OC4CCN(c5ncc(CCC)cn5)CC4)sc3c2)CC1` [Example 194], 378 nM. For the compound `CCCc1cnc(N2CCC(Oc3nc4ccc(C5=CCN(S(=O)(=O)CCC)CC5)cc4s3)CC2)nc1` [Example 1, 2-(1-(5-Propylpyrimidin-2-yl)piperidin-4-yloxy)-6-(1-(propylsulfonyl)-1,2,3,6-tetrahydropyridin-4-yl)benzo[d]thiazole], in experiment [2] (change in plasma glucose AUC vs vehicle at the minimally efficacious dose, oGTT, oral), the “Glucose Lowering (%)” value is −39%. Further, the “Minimally efficacious Dose” value in experiment [2] (oral administration 60 min before glucose load (2 g/kg), fasted male C57BL/6J mice) is given as 10 mg/kg.

As to `CCCc1cnc(N2CCC(Oc3nc4ccc(C5=CCN(S(=O)(=O)CCC(C)(C)OC(=O)CCC(=O)O)CC5)cc4s3)CC2)nc1` [Example 39, 4-(2-methyl-4-(4-(2-(1-(5-Propylpyrimidin-2-yl)piperidin-4-yloxy)benzo[d]thiazol-6-yl)-5,6-dihydropyridin-1(2H)-ylsulfonyl)butan-2-yloxy)-4-oxobutanoic acid], the EC50 in experiment [1] turned out to be 25 nM. On to `CC(C)c1noc(N2CCC(Oc3nc4ccc(C5=CCN(S(=O)(=O)CCC(C)(C)O)CC5)cc4s3)CC2)n1` [Example 44, 4-(4-(2-(1-(3-Isopropyl-1,2,4-oxadiazol-5-yl)piperidin-4-yloxy)benzo[d]thiazol-6-yl)-5,6-dihydropyridin-1(2H)-ylsulfonyl)-2-methylbutan-2-ol], for which the EC50 in experiment [1] amounted to 7.2 nM.

Regarding `CCCS(=O)(=O)N1CC=C(c2ccc3nc(OCC4[C@H]5CN(Cc6ccccc6)C[C@@H]45)sc3c2)CC1` (stereo partly drawn) [Example 127], the 50% effective concentration (EC50) in experiment [1] worked out at 29 nM.

Consider `CCCc1cnc(N2CCC(Oc3nc4ccc(C5=CCN(S(=O)(=O)CCCCC[N+](CC)(CC)CC)CC5)cc4s3)CC2)nc1` [Example 32, N,N,N-triethyl-5-(4-(2-(1-(5-propylpyrimidin-2-yl)piperidin-4-yloxy)benzo[d]thiazol-6-yl)-5,6-dihydropyridin-1(2H)-ylsulfonyl)pentan-1-aminium bromide], for which the half-maximal effective concentration (EC50) in experiment [1] stood at 9.7 nM. The same measure, in the same setting: the same measure for `CCCc1cnc(N2CCC(Oc3nc4ccc(C5=CCN(C(=O)c6csnn6)CC5)cc4s3)CC2)nc1` [Example 73]: 788 nM; for `CCCc1cnc(N2CCN(c3nc4ccc(C5=CCN(S(=O)(=O)CC(C)C)CC5)cc4s3)CC2)nc1` [Example 133]: 169 nM; for `CCCc1cnc(N2C[C@@H]3[C@@H](COc4nc5ccc(-c6ccc(S(C)(=O)=O)cc6)cc5s4)[C@@H]3C2)nc1` [Example 266]: 1080 nM. The same measure, in the same setting: to `CN(C)S(=O)(=O)N1CC=C(c2ccc3nc(OC4CCN(c5ncc(F)cn5)CC4)sc3c2)CC1` [Example 49, 4-(2-((1-(5-Fluoropyrimidin-2-yl)piperidin-4-yl)oxy)benzo[d]thiazol-6-yl)-N,N-dimethyl-5,6-dihydropyridine-1(2H)-sulfonamide] belongs 7.5 nM; to `CCCc1cnc(N2CC[C@H](Oc3nc4ccc(C5=CCN(S(=O)(=O)CCC)CC5)cc4s3)C2)nc1` [Example 115], 28.4 nM.

The values above are taken from US8940716B2, “Bicyclic heteroaryl compounds as GPR119 modulators” (Bristol-Myers Squibb Company, priority 2010, dated 2015).
